Source: patent US20220079895A1, “COMPOSITION FOR PREVENTING OR TREATING LIVER DISEASES” (AceBiomed, Inc., priority 2020, published 2022)

Tests used:
[1] = system: collagen I; assay: expression of collagen I increased by TGF-β1 in hepatocytes AML12; assay type: cell-based, mouse; conditions: AML12 cells; for additive interaction with colchicine in inhibiting the expression of collagen I: 5 nM colchicine + 30 μg/ml DPP-4 inhibitor, TGF-β1 (5 ng/ml)
Method: (§1) Mouse hepatocytes, AML12 cells, were incubated at 37° C., 95% air and 5% CO2 in a DMEM/F12 medium containing 5 μg/ml insulin, 5 μg/ml transferrin, 5 ng/ml selenium, 40 ng/ml dexamethasone, 10% fetal bovine serum (FBS) and 1% penicillin/streptomycin. AML12 cells pre-treated with 5 nM of colchicine and 30 μg/ml of a dipeptidyl peptidase-4 (DPP-4) inhibitor were treated with TGF-β1 (5 ng/ml) or 0.2 mM of palmitate after 8 hours, and further incubated for additional 16 hours.
(§2) Total RNA was extracted using an RNeasy mini kit (Qiagen), and then synthesized into cDNA using a high-capacity cDNA reverse transcription kit (Thermo Fisher). The same amount of cDNA was amplified using a SYBR™ green PCR master mix and a 10 pM primer set for each gene. The amplification process was subjected to an initial denaturation process at 95° C. for 5 minutes, and repetitively replication at 95° C. for 10 seconds, 58.5° C. for 10 seconds, and 72° C. for 10 seconds for a total of 40 times.

[2] = system: SREBP1; assay: expression of SREBP1 induced by palmitate in hepatocytes AML12; assay type: cell-based, mouse; conditions: AML12 cells; for additive interaction with colchicine in inhibiting the expression of SREBP1: 5 nM colchicine + 30 μg/ml DPP-4 inhibitor, 0.2 mM palmitate
Method: as §1, §2

[3] = system: IL-1β; assay: expression of IL-1β induced by palmitate in hepatocytes AML12; assay type: cell-based, mouse; conditions: AML12 cells
Method: as §1, §2

[4] = system: nonalcoholic steatohepatitis (NASH)-induced model mouse; assay: H&E staining of liver tissues, fat accumulation, NASH-induced model; assay type: in vivo; conditions: high fat diet 30 weeks
Method: For H&E staining, deparaffinized tissues were reacted with a 50% hematoxylin solution at room temperature for 20 minutes, reacted with 1% HCl for 1 second, and then immediately transferred to a 0.5% eosin solution and stained for 20 minutes. Thereafter, the tissue was washed with distilled water, reacted with graded alcohol and finally dehydrated with xylene. The dehydrated tissue was fixed on a coverslip using a permount.

[5] = system: NASH-induced model mouse; assay: hydroxyproline in liver tissues, NASH-induced model; assay type: in vivo; conditions: high fat diet 30 weeks
Method: 100 mg of liver tissue was homogenized with physiological saline, and then a liver tissue supernatant was separated. The separated supernatant was hydrolyzed at 120° C. for 3 hours by adding the same amount of 12 N HCl. The cooled sample was vortexed and then centrifuged at 10,000 g for 3 minutes, and absorbance was measured at 550 nm using a final microplate reader by using a hydroxyproline assay kit.

[6] = system: TGF-β1; assay: expression of fibrosis-related gene TGF-β1 in liver tissues, NASH-induced model; assay type: in vivo, mouse; conditions: high fat diet 30 weeks
Method: as §2

[7] = system: collagen I; assay: expression of fibrosis-related gene collagen I in liver tissues, NASH-induced model; assay type: in vivo, mouse; conditions: high fat diet 30 weeks
Method: as §2

[8] = system: α-SMA (α-smooth muscle actin); assay: expression of fibrosis-related gene α-SMA in liver tissues, NASH-induced model; assay type: in vivo, mouse; conditions: high fat diet 30 weeks
Method: as §2

[9] = system: TNF-α; assay: expression of inflammation-related gene TNF-α in liver tissues, NASH-induced model; assay type: in vivo, mouse; conditions: high fat diet 30 weeks
Method: as §2

[10] = system: IL-1β; assay: expression of inflammation-related gene IL-1β in liver tissues, NASH-induced model; assay type: in vivo, mouse; conditions: high fat diet 30 weeks
Method: as §2

[11] = system: IL-6; assay: expression of inflammation-related gene IL-6 in liver tissues, NASH-induced model; assay type: in vivo, mouse; conditions: high fat diet 30 weeks
Method: as §2

[12] = system: SREBP1; assay: expression of fat accumulation-related gene SREBP1 in liver tissues, NASH-induced model; assay type: in vivo, mouse; conditions: high fat diet 30 weeks
Method: as §2

[13] = system: Dgat (Diglyceride acyltransferase); assay: expression of fat accumulation-related gene Dgat in liver tissues, NASH-induced model; assay type: in vivo, mouse; conditions: high fat diet 30 weeks
Method: as §2

[14] = system: ApoA1 (Apolipoprotein A1); assay: expression of fat accumulation-related gene ApoA1 in liver tissues, NASH-induced model; assay type: in vivo, mouse; conditions: high fat diet 30 weeks
Method: as §2

[15] = system: NASH-induced model mouse; assay: superoxide (DHE) in liver tissues, NASH-induced model; assay type: in vivo; conditions: high fat diet 30 weeks
Method: In order to measure production of superoxide in liver tissues of mice, dihydroethidium (DHE) was used as a superoxide fluorescent indicator. In summary, deparaffinized liver tissue slides were reacted at 37° C. for 30 minutes with 10 μM DHE in a light-shielded humidity chamber. After the reaction, fluorescence indicating DHE was measured through a filter in a wavelength band of 580 nm in an Olympus FV1000 fluorescence microscope.

[16] = system: NASH-induced model mouse; assay: blood biochemical test: serum ALT, NASH-induced model; assay type: in vivo; conditions: for ALT: serum, HFD + Colchicine alone
Method: The activity of alanine aminotransferase (ALT) of mice was measured using an ALT activity assay kit (Sigma-Aldrich).

[17] = system: NASH-induced model mouse; assay: blood biochemical test: serum AST, NASH-induced model; assay type: in vivo; conditions: for AST: serum, HFD + Colchicine alone
Method: The activity of aspartate aminotransferase (AST) of mice was measured using an AST activity assay kit (Abcam).

[18] = system: NASH-induced model mouse; assay: blood biochemical test: serum total cholesterol, NASH-induced model; assay type: in vivo; conditions: for Total cholesterol: serum, HFD + Colchicine alone
Method: A total cholesterol amount of mice was measured using a Total cholesterol assay kit (Cell Biolabs). […] Thereafter, 50 μl of a cholesterol reaction reagent was added, and the reaction was performed at 37° C. for 45 minutes by shielding light. For the sample after the reaction, absorbance was measured at 540 to 570 nm using a microplate reader.

[19] = system: NASH-induced model mouse; assay: blood biochemical test: serum triglyceride, NASH-induced model; assay type: in vivo; conditions: for Triglyceride: serum, HFD + Colchicine alone
Method: Triglyceride levels in mice were measured using an EZ-Triglyceride quantification assay kit (Dogen Bio). 1 ml of 5% NP-40 was added to a mouse serum sample, homogenized on ice, and then sufficiently cooled at room temperature. The sample in which all triglycerides were dissolved by heating once more was centrifuged at 13,000 rpm for 2 minutes, and then an insoluble material was removed, and the sample was diluted 10-fold with distilled water before assay. 2 μl of lipase was added to the sample dispensed in a 96 well plate by 90 μl and reacted for 20 minutes at room temperature, and then the reaction mixture was added to each sample by 50 μl, and further reacted at room temperature for 30 minutes in a light-shielded state. Thereafter, absorbance was measured at 570 nm using a microplate reader.

[20] = system: NASH-induced model mouse; assay: blood biochemical test: serum bilirubin, NASH-induced model; conditions: for Bilirubin: serum, HFD + Colchicine alone
[21] = 5 nM colchicine alone, 0.2 mM palmitate after 8 hours, additional 16 hours
[22] = colchicine 40 μg/kg alone, orally once a day
[23] = co-administration with colchicine 40 μg/kg, for each sitagliptin concentration
[24] = co-administration with colchicine, for each sitagliptin concentration
[25] = high-fat diet 30 weeks, sitagliptin co-administered with colchicine by concentration

COc1cc2c(c(OC)c1OC)-c1ccc(OC)c(=O)cc1[C@@H](NC(C)=O)CC2 [Colchicine, colchicine]
decreased: ALT ([16]; listed as colchicine) | AST ([17]; listed as colchicine) | Total cholesterol ([18]; listed as colchicine) | Triglyceride ([19]; listed as colchicine) | Bilirubin ([20]; listed as colchicine)
slightly reduced: fat accumulation in liver tissues (H&E) [4, 22]
154.7 ± 4.24 U/L: ALT [16]
0.57 ± 0.05 mg/dL: Bilirubin [20]
200.7 ± 2.74 U/L: AST [17]
201.9 ± 0.27 mg/dL: Triglyceride [19]
reduced: expression of collagen I increased by TGF-β1 ([1]; 5 nM colchicine alone, TGF-β1 (5 ng/ml) after 8 hours, additional 16 hours) | expression of SREBP1 induced by palmitate [2, 21] | expression of IL-1β induced by palmitate [3, 21] | accumulation of hydroxyproline in liver tissues [5, 22] | expression of TGF-β1 in liver tissues ([6]; colchicine 40 μg/kg alone) | expression of collagen I in liver tissues ([7]; colchicine 40 μg/kg alone) | expression of α-SMA in liver tissues ([8]; colchicine 40 μg/kg alone) | expression of TNF-α in liver tissues ([9]; colchicine 40 μg/kg alone) | expression of IL-1β in liver tissues ([10]; colchicine 40 μg/kg alone) | expression of IL-6 in liver tissues ([11]; colchicine 40 μg/kg alone) | expression of SREBP1 in liver tissues ([12]; colchicine 40 μg/kg alone) | expression of Dgat in liver tissues ([13]; colchicine 40 μg/kg alone) | expression of ApoA1 in liver tissues ([14]; colchicine 40 μg/kg alone) | production of superoxide in liver tissues ([15]; colchicine 40 μg/kg alone)
264.8 ± 0.87 mg/dL: Total cholesterol [18]

CC(C)(C)OC[C@@H]1C(=O)NCCN1C(=O)C[C@H](N)Cc1cc(F)c(F)cc1F [evogliptin]
slight additive interaction: additive interaction with colchicine in inhibiting the expression of collagen I [1]

N[C@@H](CC(=O)N1CCn2c(nnc2C(F)(F)F)C1)Cc1cc(F)c(F)cc1F [sitagliptin]
most excellent additive interaction: additive interaction with colchicine in inhibiting the expression of collagen I [1] | additive interaction with colchicine in inhibiting the expression of SREBP1 [2] | additive interaction with colchicine in inhibiting the expression of IL-1β ([3]; 5 nM colchicine + 30 μg/ml DPP-4 inhibitor, 0.2 mM palmitate)
additive interaction: steatosis reduction effect, interaction with colchicine [4, 23] | hydroxyproline inhibitory effect, interaction with colchicine [5, 23] | effect of reducing the expression of TGF-β1, interaction with colchicine [6, 24] | effect of reducing the expression of collagen I, interaction with colchicine [7, 24] | effect of reducing the expression of α-SMA, interaction with colchicine [8, 24] | effect of reducing the expression of TNF-α, interaction with colchicine [9, 24] | effect of reducing the expression of IL-1β, interaction with colchicine [10, 24] | effect of reducing the expression of IL-6, interaction with colchicine [11, 24] | effect of reducing the expression of SREBP1, interaction with colchicine [12, 24] | effect of reducing the expression of Dgat, interaction with colchicine [13, 24] | effect of reducing the expression of ApoA1, interaction with colchicine [14, 24] | effect of reducing the production of superoxide, interaction with colchicine [15, 24]
decreases further: level of ALT in serum, additive interaction compared with colchicine alone [16, 25] | level of AST in serum, additive interaction compared with colchicine alone [17, 25] | level of cholesterol in serum, additive interaction compared with colchicine alone [18, 25] | level of triglyceride in serum, additive interaction compared with colchicine alone [19, 25] | level of bilirubin in serum, additive interaction compared with colchicine alone [20, 25]

Cc1cc(N2CCN([C@@H]3CN[C@H](C(=O)N4CCSC4)C3)CC2)n(-c2ccccc2)n1 [teneligliptin]
excluding: additive interaction with colchicine in inhibiting the expression of SREBP1 [2]
slight additive interaction: additive interaction with colchicine in inhibiting the expression of collagen I [1]

N#C[C@@H]1CCCN1C(=O)CNC12CC3CC(CC(O)(C3)C1)C2 [vildagliptin]
slight additive interaction: additive interaction with colchicine in inhibiting the expression of collagen I [1]
